Results taken from patent publication US20240294467A1, “USP9X Inhibitors” (ProDeg, LLC, priority 2021, published 2024).

Legend:
[1] = target: CYLD (Homo sapiens (Human), UniProt Q9NQC7); test: DUB selectivity panel using ubiquitin-AMC; assay type: biochemical; settings: 5 μM compound, 500 nM Ubiquitin-AMC
Excerpt: (§1) Compounds were screened for DUB inhibitory and apoptotic activity against other deubiquitylases in a DUB selectivity panel using ubiquitin-AMC (BPS Bioscience Inc.).

[2] = target: UCH-L3 (Homo sapiens (Human), UniProt P15374); test: DUB selectivity panel using ubiquitin-AMC; assay type: biochemical; settings: 5 μM compound, 500 nM Ubiquitin-AMC
Excerpt: as §1

[3] = target: USP10 (Homo sapiens (Human), UniProt Q14694); test: DUB selectivity panel using ubiquitin-AMC; assay type: biochemical; settings: 5 μM compound, 500 nM Ubiquitin-AMC
Excerpt: as §1

[4] = target: USP13 (Homo sapiens (Human), UniProt Q92995); test: DUB selectivity panel using ubiquitin-AMC; assay type: biochemical; settings: 5 μM compound, 500 nM Ubiquitin-AMC
Excerpt: as §1

[5] = target: USP15 (Homo sapiens (Human), UniProt Q9Y4E8); test: DUB selectivity panel using ubiquitin-AMC; assay type: biochemical; settings: 5 μM compound, 500 nM Ubiquitin-AMC
Excerpt: as §1

[6] = target: USP2 (Homo sapiens (Human), UniProt O75604); test: DUB selectivity panel using ubiquitin-AMC; assay type: biochemical
Excerpt: as §1

[7] = target: USP25 (Homo sapiens (Human), UniProt Q9UHP3); test: DUB selectivity panel using ubiquitin-AMC; assay type: biochemical; settings: 5 μM compound, 500 nM Ubiquitin-AMC
Excerpt: as §1

[8] = target: USP28 (Homo sapiens (Human), UniProt Q96RU2); test: DUB selectivity panel using ubiquitin-AMC; assay type: biochemical
Excerpt: as §1

[9] = target: USP30 (Homo sapiens (Human), UniProt Q70CQ3); test: DUB selectivity panel using ubiquitin-AMC; assay type: biochemical; settings: 5 μM compound, 500 nM Ubiquitin-AMC
Excerpt: as §1

[10] = target: USP4 (Homo sapiens (Human), UniProt Q13107); test: DUB selectivity panel using ubiquitin-AMC; assay type: biochemical; settings: 5 μM compound, 500 nM Ubiquitin-AMC
Excerpt: as §1

[11] = target: USP5 (Homo sapiens (Human), UniProt P45974); test: DUB selectivity panel using ubiquitin-AMC; assay type: biochemical; settings: 5 μM compound, 500 nM Ubiquitin-AMC
Excerpt: as §1

[12] = target: USP7 (Homo sapiens (Human), UniProt Q93009); test: DUB selectivity panel using ubiquitin-AMC; assay type: biochemical
Excerpt: as §1

[13] = target: VCPIP (Homo sapiens (Human), UniProt Q96JH7); test: DUB selectivity panel using ubiquitin-AMC; assay type: biochemical; settings: 5 μM compound, 500 nM Ubiquitin-AMC
Excerpt: as §1

[14] = system: SK-BR3 breast cancer cells; test: WST-1 cell viability assay; assay type: cell-based; settings: Homo sapiens, SK-BR-3, 72-hour treatment, read-out: IC50, inhibiting proliferation
Experimental: Compound Compound 9A was tested for the ability to inhibit the proliferation of Mia-Paca-2 pancreatic cancer cells. Mia-Paca-2 and MDA-MB-231 cells were seeded into the wells of a 96 well tissue culture plate in complete medium (10% fetal calf serum) and incubated overnight at 37° C./5% CO2). The medium was exchanged for fresh medium containing varying concentrations of Compound 9A and the plate was incubated for 72 hours at 37° C./5% CO2. The viability of cells at the end of this incubation was assessed with the WST-1 reagent. To 10 ml of warm (37° C.) complete medium, 1 ml WST-1 reagent was added. The medium from the wells of the plate with the Mia-Paca-2 cells was removed and replaced with 100 μL of the WST-1 reagent in complete medium. The plate was incubated at 37 37° C./5% CO2. At timed intervals the absorbance at 450 nm was determined for each well in a UVNis plate reader. For each well the slope of the plot of the absorbance 450 nm vs time was determined. The readings were normalized to that of the wells for the untreated control and a dose-response curve was plotted. A fit to the data was made from a four parameter, variable slope program (GraphPad Prism) and the IC50 was determined.
Another substrate of USP9X is the receptor tyrosine kinase erbB2. […] The breast cancer cell line SK-BR3 expresses high levels of erbB2. […]

[15] = system: A-172; test: ONCOLINES Profiler proliferation; assay type: cell-based
Excerpt: (§2) The compounds were profiled on an ONCOLINES™ Profiler (Netherlands Translational Research Center) assayed with 66 cancer cell lines to determine if they were capable of inhibiting the proliferation of these cancer cells.
(§3) To further evaluate potency of the compounds, they were compared with the USP9X inhibitor WP 1130 by screening both the compounds and WP1130 on a 66-cancer cell line panel ONCOLINES™ Profiler.

[16] = system: A549; test: ONCOLINES Profiler proliferation; assay type: cell-based
Excerpt: as §2, §3

[17] = system: BT-20; test: ONCOLINES Profiler proliferation; assay type: cell-based
Excerpt: as §2, §3

[18] = system: CCRF-CEM; test: ONCOLINES Profiler proliferation; assay type: cell-based; settings: for IC50: acute lymphoblastic leukemia
Excerpt: as §2, §3

[19] = system: DU 145; test: ONCOLINES Profiler proliferation; assay type: cell-based
Excerpt: as §2, §3

[20] = system: H82; test: ONCOLINES Profiler proliferation; assay type: cell-based
Excerpt: as §2, §3

[21] = system: Hs 57BT; test: ONCOLINES Profiler proliferation; assay type: cell-based; settings: for IC50: Hs 57BT (Hs578T), breast carcinoma
Excerpt: as §2, §3

[22] = system: LoVo; test: ONCOLINES Profiler proliferation; assay type: cell-based; settings: for IC50: colorectal adenocarcinoma
Excerpt: as §2, §3

[23] = system: MOLT-4; test: ONCOLINES Profiler proliferation; assay type: cell-based
Excerpt: as §2, §3

[24] = system: RKO; test: ONCOLINES Profiler proliferation; assay type: cell-based; settings: for IC50: colon carcinoma
Excerpt: as §2, §3

[25] = system: RPMI-7951; test: ONCOLINES Profiler proliferation; assay type: cell-based
Excerpt: as §2, §3

[26] = 5 μM compound, 500 nM Ubiquitin-AMC

Sequence of USP7 (Q93009 whole entry): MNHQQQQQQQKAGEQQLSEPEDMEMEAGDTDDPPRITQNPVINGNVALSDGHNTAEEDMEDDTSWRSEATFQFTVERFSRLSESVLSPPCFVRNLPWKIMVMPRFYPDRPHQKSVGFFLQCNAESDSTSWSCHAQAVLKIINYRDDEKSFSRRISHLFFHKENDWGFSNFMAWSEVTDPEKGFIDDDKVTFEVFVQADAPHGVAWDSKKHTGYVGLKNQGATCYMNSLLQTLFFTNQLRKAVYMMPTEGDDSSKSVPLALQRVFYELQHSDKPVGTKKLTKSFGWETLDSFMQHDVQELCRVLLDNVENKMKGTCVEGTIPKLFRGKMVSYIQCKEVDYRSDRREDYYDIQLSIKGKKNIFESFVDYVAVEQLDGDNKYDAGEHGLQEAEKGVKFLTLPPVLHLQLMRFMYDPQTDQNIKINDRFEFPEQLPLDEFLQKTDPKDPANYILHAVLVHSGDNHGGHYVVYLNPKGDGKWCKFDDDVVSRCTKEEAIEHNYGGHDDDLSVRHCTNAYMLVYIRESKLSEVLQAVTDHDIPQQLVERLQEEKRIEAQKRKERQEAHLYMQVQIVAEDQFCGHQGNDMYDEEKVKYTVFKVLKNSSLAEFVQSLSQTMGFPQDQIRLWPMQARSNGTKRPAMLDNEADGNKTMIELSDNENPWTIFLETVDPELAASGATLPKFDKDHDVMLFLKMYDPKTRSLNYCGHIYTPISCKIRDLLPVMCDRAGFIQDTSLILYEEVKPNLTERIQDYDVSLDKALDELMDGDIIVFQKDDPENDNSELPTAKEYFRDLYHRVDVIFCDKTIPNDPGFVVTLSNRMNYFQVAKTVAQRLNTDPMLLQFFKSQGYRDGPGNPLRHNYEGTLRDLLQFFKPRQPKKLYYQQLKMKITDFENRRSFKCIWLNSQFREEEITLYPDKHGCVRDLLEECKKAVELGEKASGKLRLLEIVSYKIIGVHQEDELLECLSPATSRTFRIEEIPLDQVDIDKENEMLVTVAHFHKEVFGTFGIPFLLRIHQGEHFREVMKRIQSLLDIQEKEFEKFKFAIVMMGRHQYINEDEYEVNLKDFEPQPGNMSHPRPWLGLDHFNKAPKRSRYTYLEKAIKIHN
Sequence of USP2 (O75604 whole entry): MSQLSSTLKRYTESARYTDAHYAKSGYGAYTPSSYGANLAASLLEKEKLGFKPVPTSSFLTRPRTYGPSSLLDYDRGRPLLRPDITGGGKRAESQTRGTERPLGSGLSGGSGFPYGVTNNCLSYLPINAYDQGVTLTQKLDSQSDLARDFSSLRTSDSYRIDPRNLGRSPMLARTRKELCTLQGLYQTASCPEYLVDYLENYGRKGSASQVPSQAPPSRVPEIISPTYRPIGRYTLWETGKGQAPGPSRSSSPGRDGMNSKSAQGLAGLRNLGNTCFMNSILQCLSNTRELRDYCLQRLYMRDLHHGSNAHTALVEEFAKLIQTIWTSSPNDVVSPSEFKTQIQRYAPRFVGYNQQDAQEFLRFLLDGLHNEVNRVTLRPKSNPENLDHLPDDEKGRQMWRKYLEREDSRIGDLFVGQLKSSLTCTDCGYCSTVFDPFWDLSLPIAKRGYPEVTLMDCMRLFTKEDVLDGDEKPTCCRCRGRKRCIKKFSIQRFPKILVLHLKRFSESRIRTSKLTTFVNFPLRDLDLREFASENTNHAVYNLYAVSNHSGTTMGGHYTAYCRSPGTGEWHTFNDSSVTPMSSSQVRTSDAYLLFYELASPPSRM
Sequence of USP13 (Q92995 whole entry): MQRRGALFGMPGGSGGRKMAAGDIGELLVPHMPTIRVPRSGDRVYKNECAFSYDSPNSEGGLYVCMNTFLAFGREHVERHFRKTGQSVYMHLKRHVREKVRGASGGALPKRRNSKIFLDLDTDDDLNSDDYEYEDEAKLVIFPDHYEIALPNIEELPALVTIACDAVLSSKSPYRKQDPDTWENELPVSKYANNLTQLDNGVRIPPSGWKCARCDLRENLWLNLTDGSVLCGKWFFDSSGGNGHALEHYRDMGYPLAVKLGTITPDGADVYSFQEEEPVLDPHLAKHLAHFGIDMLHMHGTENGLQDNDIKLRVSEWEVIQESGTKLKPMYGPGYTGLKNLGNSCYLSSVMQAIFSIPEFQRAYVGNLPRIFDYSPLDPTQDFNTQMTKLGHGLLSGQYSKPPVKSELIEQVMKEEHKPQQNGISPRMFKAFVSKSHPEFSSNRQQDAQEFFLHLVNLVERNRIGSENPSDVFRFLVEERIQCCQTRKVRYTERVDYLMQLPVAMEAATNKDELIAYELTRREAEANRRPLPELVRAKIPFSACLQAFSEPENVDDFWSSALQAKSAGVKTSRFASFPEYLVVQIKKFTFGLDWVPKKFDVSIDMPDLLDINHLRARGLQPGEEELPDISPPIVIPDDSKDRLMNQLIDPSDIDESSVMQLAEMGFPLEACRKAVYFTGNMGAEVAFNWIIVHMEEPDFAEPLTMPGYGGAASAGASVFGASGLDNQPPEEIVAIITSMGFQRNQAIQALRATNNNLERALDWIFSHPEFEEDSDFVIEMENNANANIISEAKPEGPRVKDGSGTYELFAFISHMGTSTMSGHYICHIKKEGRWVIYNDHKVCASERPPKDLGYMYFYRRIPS
Sequence of CYLD (Q9NQC7 whole entry): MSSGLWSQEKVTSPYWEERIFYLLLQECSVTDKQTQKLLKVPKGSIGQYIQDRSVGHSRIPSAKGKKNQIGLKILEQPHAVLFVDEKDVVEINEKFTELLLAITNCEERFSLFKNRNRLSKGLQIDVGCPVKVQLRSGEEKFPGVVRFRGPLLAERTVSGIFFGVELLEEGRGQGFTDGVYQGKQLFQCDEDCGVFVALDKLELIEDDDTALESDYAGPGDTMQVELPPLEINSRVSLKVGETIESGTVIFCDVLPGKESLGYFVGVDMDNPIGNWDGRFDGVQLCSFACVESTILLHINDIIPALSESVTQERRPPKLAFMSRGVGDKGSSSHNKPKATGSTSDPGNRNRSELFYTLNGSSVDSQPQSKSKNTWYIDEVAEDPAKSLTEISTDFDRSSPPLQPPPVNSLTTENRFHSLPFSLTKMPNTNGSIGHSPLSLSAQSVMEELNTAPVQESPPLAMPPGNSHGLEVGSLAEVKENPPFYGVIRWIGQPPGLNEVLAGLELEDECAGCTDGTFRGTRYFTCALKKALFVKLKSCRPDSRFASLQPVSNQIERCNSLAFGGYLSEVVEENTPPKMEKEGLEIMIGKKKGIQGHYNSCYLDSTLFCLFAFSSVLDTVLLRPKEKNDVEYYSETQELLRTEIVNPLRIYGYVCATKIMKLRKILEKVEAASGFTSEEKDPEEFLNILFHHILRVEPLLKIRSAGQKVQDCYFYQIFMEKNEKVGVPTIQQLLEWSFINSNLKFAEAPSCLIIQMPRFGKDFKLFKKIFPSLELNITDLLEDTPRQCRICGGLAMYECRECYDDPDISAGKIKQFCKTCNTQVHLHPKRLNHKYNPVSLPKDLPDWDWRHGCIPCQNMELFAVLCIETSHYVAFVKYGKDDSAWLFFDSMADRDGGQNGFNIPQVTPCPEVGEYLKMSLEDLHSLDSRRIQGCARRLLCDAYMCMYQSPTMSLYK
Sequence of USP5 (P45974 whole entry): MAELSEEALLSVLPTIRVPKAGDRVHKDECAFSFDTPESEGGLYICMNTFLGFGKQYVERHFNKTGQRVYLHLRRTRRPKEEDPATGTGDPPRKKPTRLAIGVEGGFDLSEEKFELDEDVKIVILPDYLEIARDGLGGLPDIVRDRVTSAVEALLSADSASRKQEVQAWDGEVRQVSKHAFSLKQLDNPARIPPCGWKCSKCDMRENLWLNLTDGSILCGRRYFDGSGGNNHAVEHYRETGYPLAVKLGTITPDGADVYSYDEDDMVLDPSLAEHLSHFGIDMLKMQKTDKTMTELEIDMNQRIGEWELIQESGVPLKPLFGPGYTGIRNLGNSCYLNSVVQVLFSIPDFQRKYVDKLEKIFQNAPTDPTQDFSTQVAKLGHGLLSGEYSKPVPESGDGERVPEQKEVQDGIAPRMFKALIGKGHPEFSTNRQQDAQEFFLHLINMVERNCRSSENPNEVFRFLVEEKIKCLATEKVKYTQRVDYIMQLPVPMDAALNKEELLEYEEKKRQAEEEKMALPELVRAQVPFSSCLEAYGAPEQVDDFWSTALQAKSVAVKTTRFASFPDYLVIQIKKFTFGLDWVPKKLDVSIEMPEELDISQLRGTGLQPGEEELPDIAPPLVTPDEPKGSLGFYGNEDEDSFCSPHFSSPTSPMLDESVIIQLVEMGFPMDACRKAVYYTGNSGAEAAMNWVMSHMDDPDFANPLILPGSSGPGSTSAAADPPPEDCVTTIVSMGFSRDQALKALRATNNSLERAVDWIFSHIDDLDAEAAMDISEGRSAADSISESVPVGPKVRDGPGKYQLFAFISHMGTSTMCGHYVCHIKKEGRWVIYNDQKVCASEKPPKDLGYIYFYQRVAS
Sequence of UCH-L3 (P15374 whole entry): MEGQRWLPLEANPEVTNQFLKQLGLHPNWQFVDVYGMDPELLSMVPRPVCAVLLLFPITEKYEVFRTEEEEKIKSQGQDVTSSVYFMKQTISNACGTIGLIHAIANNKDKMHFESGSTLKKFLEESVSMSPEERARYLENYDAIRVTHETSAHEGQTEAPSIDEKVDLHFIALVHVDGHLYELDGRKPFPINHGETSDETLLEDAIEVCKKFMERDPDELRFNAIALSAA

SMILES: CN1CCOc2ccc(cc2)C(=O)NCc2cccc(c2)C(=O)N[C@@H](CC(C)(C)C)C(=O)Nc2ccc(cc2)CCN(C)C(=O)CC(C)(C)CC1=O [Compound 5A]
- inhibition at 5 µM [1]: 0%
- inhibition of CYLD [1]: no detectable effect
- inhibition at 5 µM [2]: 0%
- inhibition of UCH-L3 [2]: no detectable effect
- inhibition at 5 µM [3]: < 1%
- inhibition at 5 µM [4]: 0%
- inhibition of USP13 [4]: no detectable effect
- inhibition at 5 µM [5]: < 2%
- IC50 [6]: > 50000 nM
- inhibition at 5 µM [6, 26]: 0%
- inhibition of USP2 [6, 26]: no detectable effect
- inhibition at 5 µM [7]: 0%
- inhibition of USP25 [7]: no detectable effect
- IC50 [8]: 15000 nM
- inhibition at 5 µM [9]: < 5%
- inhibition at 5 µM [10]: 0%
- inhibition of USP4 [10]: no detectable effect
- inhibition at 5 µM [11]: 0%
- inhibition of USP5 [11]: no detectable effect
- IC50 [12]: > 50000 nM
- inhibition at 5 µM [12, 26]: 0%
- inhibition of USP7 [12, 26]: no detectable effect
- inhibition at 5 µM [13]: < 3%

SMILES: CN1CCOc2ccc(cc2)C(=O)NCc2ccc(F)c(c2)C(=O)N[C@@H](CC(C)(C)C)C(=O)Nc2ccc(cc2)CCN(C)C(=O)CC(C)(C)CC1=O [Compound 7A]
- IC50 [14]: 2700 nM
- IC50 Ratio WP1130/Compound 7A ([15]; A-172): 5.1
- IC50 ([15]; A-172, glioblastoma): 1100 nM
- IC50 ([15]; Homo sapiens, A 172, A-172, glioblastoma): 1070 nM
- IC50 Ratio WP1130/Compound 7A ([16]; A549): 4.7
- IC50 ([16]; Homo sapiens, A549, lung): 3000 nM
- IC50 Ratio WP1130/Compound 7A ([17]; BT-20): 3.6
- IC50 ([17]; BT-20, breast carcinoma): 1400 nM
- IC50 ([17]; Homo sapiens, BT-20, BT-20, breast carcinoma): 1390 nM
- IC50 Ratio WP1130/Compound 7A [18]: 17.6
- IC50 ([18]; Homo sapiens): 247 nM
- IC50 [18]: 250 nM
- IC50 Ratio WP1130/Compound 7A ([19]; DU145): 4.8
- IC50 ([19]; DU 145, prostate carcinoma): 2000 nM
- IC50 ([19]; Homo sapiens, DU-145, DU 145, prostate carcinoma): 2010 nM
- IC50 Ratio WP1130/Compound 7A ([20]; H82): 6.0
- IC50 ([20]; Homo sapiens, NCI-H82, H82, small cell lung): 1100 nM
- IC50 ([21]; Homo sapiens, Hs-578T): 1410 nM
- IC50 [21]: 1400 nM
- IC50 Ratio WP1130/Compound 7A ([21]; Hs578T): 4.5
- IC50 Ratio WP1130/Compound 7A [22]: 8.6
- IC50 ([22]; Homo sapiens): 635 nM
- IC50 [22]: 640 nM
- IC50 ([23]; Homo sapiens, MOLT-4, MOLT-4, acute lymphoblastic leukemia): 594 nM
- IC50 Ratio WP1130/Compound 7A ([23]; MOLT-4): 6.8
- IC50 ([23]; MOLT-4, acute lymphoblastic leukemia): 590 nM
- IC50 Ratio WP1130/Compound 7A [24]: 4.9
- IC50 ([24]; Homo sapiens): 880 nM
- IC50 [24]: 683 nM
- IC50 ([25]; Homo sapiens, RPMI-7951, RPMI-7951, malignant melanoma): 1200 nM
- IC50 Ratio WP1130/Compound 7A ([25]; RPMI7951): 3.5
- IC50 ([25]; RPMI-7951, malignant melanoma): 1200 nM
